Test results: patent US12404261B2, “Compounds and compositions for treating conditions associated with cGAS” (Novartis AG, priority 2020, dated 2025)

biological target: human truncated cGAS enzyme (147-522 human cGAS) (Homo sapiens (Human), UniProt Q8N884); experiment: Quantification of cGAS protein inhibition (cGAMP formation measured by LC-MS/MS); type: biochemical; settings: reported for the potential mixture of co-existing tautomers and/or racemates
Experimental: A reagent buffer was prepared in filtered and autoclaved water according to the following: • 50 mM Tris-buffer pH 7.5 (1 M Tris-buffer pH 7.5, Invitrogen, Cat. No. 15567-027); • 50 mM NaCl (5 M NaCl, Sodium Chloride Solution, Sigma, 59222C-); • 5 mM MgCl2 (1 M MgCl2, Sigma, M1028); • 0.1 mM ZnCl2 (Zinc Chloride [7646-85-7], powder, Cell Culture Tested, Sigma, Z-0152); and • 0.001% Tween 20 (TWEEN 20, Sigma Aldrich, P1379-).
A buffer for the cGAS enzyme was prepared in filtered and autoclaved water according to the following: • 50 mM Tris-buffer pH 7.5; • 5 mM MgCl2; and • 0.001% Tween 20.
Compounds were dispensed to a […]. The human truncated cGAS enzyme (4.2 mg/mL 147-522 human cGAS, MW 43,909 g/mol) was stored in 50 mM Tris, 500 mM NaCl, 5% (v/v) glycerol at pH 8 and diluted in the cGAS buffer enzyme shortly before use. The enzyme solution was transferred into the reagent buffer to give a final concentration of 30 nM. The reaction was started by mixing the enzyme with ISD (a 45 bp double stranded DNA, MW 27,670 g/mol, 5 mM), GTP and ATP to a final concentration of 5 μM, 0.5 mM and 0.5 mM respectively in a final volume of 10 μl. The reaction plates were then centrifuged at 1000 rpm for 1 minute and incubated at room temperature for 1 h. After 1 h of incubation, [^5Ns]-2′3′-cGAMP to a final concentration of 200 nM and 30 μL of 100% acetonitrile/0.175% of TFA were added to the reaction mixture. The plates were centrifuged at 1000 rpm for 1 minute before being sealed for 3 seconds at 170° C. using a ThermoScientific sealer (ALPS™ 50V) and an aluminum sealing cover (Pierce Seal, 4titude, Product Code: 4TI-0531).
The concentration of cGAMP was measured on a LC-MS/MS system consisting of a THERMO Dionex Ultimate LC system with a high pressure pump, an autosampler, a column heating compartment (Reinach, Switzerland) and a SCIEX Triple Quad 5500 (Framingham, MA, USA) mass spectrometer for detection. The sample plates were centrifuged for 10 minutes at 2000 rpm. Up to three plates were placed in the autosampler for injection. An aliquot of 10 μL of each sample was injected on an XBridge BEH Amide 3.5 μm, 2.1×50 mm column (P/N 186004859) with an XBridge BEH Amide 5 μm 2.1×5 mm VanGuard Cartridge (P/N 186007760) pre-column (both WATERS, MA, USA) held at 40° C. An isocratic flow of 1.0 mL/min solvent (60% ACN, 8 mM ammonium acetate, 5 mM ammonium hydroxide, 0.04% acetic acid) was applied and sprayed into the ion source of the mass spectrometers. The MS parameters were optimized based on the properties of the compounds to be detected and run in positive multi-reaction mode (MRM) based on the mass transitions. LC and MS parameters were also optimized to allow for a sample-to-sample measuring time of approximately 75 sec and a run time of 8 hours per 384-well plate. All data were analyzed with Excel; and the dose response curves were generated using the auto fitting function of XLfit. The IC50 was determined by plotting the cGAMP concentration ratio (cGAMP divided by the internal standard [^15Ns]-2′3′-cGAMP) versus the concentration of compound.

Sequence of human truncated cGAS enzyme (147-522 human cGAS) (Q8N884 147-522): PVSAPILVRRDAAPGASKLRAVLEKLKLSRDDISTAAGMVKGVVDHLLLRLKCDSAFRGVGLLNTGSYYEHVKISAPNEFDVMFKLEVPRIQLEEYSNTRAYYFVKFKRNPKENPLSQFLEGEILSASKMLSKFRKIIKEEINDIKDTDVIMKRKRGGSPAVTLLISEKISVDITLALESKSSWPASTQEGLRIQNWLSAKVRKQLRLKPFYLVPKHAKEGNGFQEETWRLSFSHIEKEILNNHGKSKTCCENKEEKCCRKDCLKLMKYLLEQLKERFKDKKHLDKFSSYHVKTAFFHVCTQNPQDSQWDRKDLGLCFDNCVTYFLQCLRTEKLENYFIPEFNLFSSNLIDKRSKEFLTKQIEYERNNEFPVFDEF

SMILES | IC50 [nM]
CCOC(=O)c1nnc(-c2[nH]c3cc(Cl)c(OC)cc3c2-c2cn[nH]c2)[nH]1 [Example 28, ethyl 5-(6-chloro-5-methoxy-3-(1H-pyrazol-4-yl)-1H-indol-2-yl)-4H-1,2,4-triazole-3-carboxylate] | 75
COC(=O)Cc1nnc(-c2[nH]c3c(Cl)c(Cl)ccc3c2-c2cn[nH]c2)[nH]1 [Example 29, methyl 2-(5-(6,7-dichloro-3-(1H-pyrazol-4-yl)-1H-indol-2-yl)-4H-1,2,4-triazol-3-yl)acetate] | 218
COc1cc2c(-c3cn[nH]c3)c(-c3nnc(C(N)=O)[nH]3)[nH]c2cc1Cl [Example 31, 5-(6-chloro-5-methoxy-3-(1H-pyrazol-4-yl)-1H-indol-2-yl)-4H-1,2,4-triazole-3-carboxamide] | 49
FC(F)(F)c1nnc(-c2cc3c(Cl)c(Cl)ccc3n2-c2cn[nH]c2)[nH]1 [Example 32, 4,5-dichloro-1-(1H-pyrazol-4-yl)-2-(5-(trifluoromethyl)-4H-1,2,4-triazol-3-yl)-1H-indole] | 496
Oc1cc2c(-c3cn[nH]c3)c(-c3nnc(C(F)(F)F)[nH]3)[nH]c2cc1Cl [Example 33, 6-Chloro-3-(1H-pyrazol-4-yl)-2-(5-(trifluoromethyl)-4H-1,2,4-triazol-3-yl)-1H-indol-5-ol] | 38
Oc1c(Cl)ccc2c(-c3cn[nH]c3)c(-c3nnc(C(F)(F)F)[nH]3)[nH]c12 [Example 34, 6-chloro-3-(1H-pyrazol-4-yl)-2-(5-(trifluoromethyl)-4H-1,2,4-triazol-3-yl)-1H-indol-7-ol] | 954
N#Cc1nnc(-c2[nH]c3c(Cl)c(Cl)ccc3c2-c2cn[nH]c2)[nH]1 [Example 35, 5-(6,7-Dichloro-3-(1H-pyrazol-4-yl)-1H-indol-2-yl)-4H-1,2,4-triazole-3-carbonitrile] | 77
OCc1nnc(-c2[nH]c3c(Cl)c(Cl)ccc3c2-c2cn[nH]c2)[nH]1 [Example 36, (5-(6,7-Dichloro-3-(1H-pyrazol-4-yl)-1H-indol-2-yl)-4H-1,2,4-triazol-3-yl)methanol] | 342
OCCn1cnc(-c2[nH]c3c(Cl)c(Cl)ccc3c2-c2cn[nH]c2)n1 [Example 37, 2-(3-(6,7-dichloro-3-(1H-pyrazol-4-yl)-1H-indol-2-yl)-1H-1,2,4-triazol-1-yl)ethan-1-ol] | 137
Clc1ccc2c(-c3cn[nH]c3)c(-c3nnc[nH]3)[nH]c2c1Cl [Example 38, 6,7-dichloro-3-(1H-pyrazol-4-yl)-2-(4H-1,2,4-triazol-3-yl)-1H-indole] | 136
COc1cc2c(-n3ccnc3)c(-c3nnc(C(F)(F)F)[nH]3)[nH]c2c(F)c1Cl [Example 48, 6-chloro-7-fluoro-3-(1H-imidazol-1-yl)-5-methoxy-2-(5-(trifluoromethyl)-4H-1,2,4-triazol-3-yl)-1H-indole] | 66
COCC(O)c1nnc(-c2c(-n3ccnc3)c3cc(OC)c(Cl)c(C#N)c3n2C)[nH]1 (centres unmarked) [Example 53, 6-chloro-2-(5-(1-hydroxy-2-methoxyethyl)-4H-1,2,4-triazol-3-yl)-3-(1H-imidazol-1-yl)-5-methoxy-1-methyl-1H-indole-7-carbonitrile] | 66
COCc1nnc(-c2c(-n3ccnc3)c3cc(OC)c(Cl)c(C#N)c3n2C)[nH]1 [Example 54, 6-chloro-3-(1H-imidazol-1-yl)-5-methoxy-2-(5-(methoxymethyl)-4H-1,2,4-triazol-3-yl)-1-methyl-1H-indole-7-carbonitrile] | 76

Results, then the molecule that gave them:

IC50 [nM] | SMILES
48 | COc1cc2c(-n3ccnc3)c(-c3nnc(C(=O)N(C)C)[nH]3)n(C)c2c(F)c1Cl [Example 39, 5-(6-chloro-7-fluoro-3-(1H-imidazol-1-yl)-5-methoxy-1-methyl-1H-indol-2-yl)-N,N-dimethyl-4H-1,2,4-triazole-3-carboxamide]
82 | COCCN(C)C(=O)c1nnc(-c2c(-n3ccnc3)c3cc(OC)c(Cl)c(F)c3n2C)[nH]1 [Example 40, 5-(6-chloro-7-fluoro-3-(1H-imidazol-1-yl)-5-methoxy-1-methyl-1H-indol-2-yl)-N-(2-methoxyethyl)-N-methyl-4H-1,2,4-triazole-3-carboxamide]
61 | COc1cc2c(-n3ccnc3)c(-c3nnc(C(=O)N(C)CCO)[nH]3)n(C)c2c(F)c1Cl [Example 41, 5-(6-chloro-7-fluoro-3-(1H-imidazol-1-yl)-5-methoxy-1-methyl-1H-indol-2-yl)-N-(2-hydroxyethyl)-N-methyl-4H-1,2,4-triazole-3-carboxamide]
63 | COc1cc2c(-n3ccnc3)c(-c3nnc(C(=O)N4CCOCC4)[nH]3)n(C)c2c(F)c1Cl [Example 42, (5-(6-chloro-7-fluoro-3-(1H-imidazol-1-yl)-5-methoxy-1-methyl-1H-indol-2-yl)-4H-1,2,4-triazol-3-yl)(morpholino)methanone]
61 | COc1cc2c(-n3ccnc3)c(-c3nnc(C(=O)N4CCC(O)C4)[nH]3)n(C)c2c(F)c1Cl (centres unmarked) [Example 43, (5-(6-chloro-7-fluoro-3-(1H-imidazol-1-yl)-5-methoxy-1-methyl-1H-indol-2-yl)-4H-1,2,4-triazol-3-yl)(3-hydroxypyrrolidin-1-yl)methanone]
58 | COc1cc2c(-n3ccnc3)c(-c3nnc(C(=O)N4CCC(O)CC4)[nH]3)n(C)c2c(F)c1Cl [Example 44, (5-(6-chloro-7-fluoro-3-(1H-imidazol-1-yl)-5-methoxy-1-methyl-1H-indol-2-yl)-4H-1,2,4-triazol-3-yl)(4-hydroxypiperidin-1-yl)methanone]
56 | COc1cc2c(-n3ccnc3)c(-c3nnc(C(=O)N4CCCC(O)C4)[nH]3)n(C)c2c(F)c1Cl (centres unmarked) [Example 45, (5-(6-chloro-7-fluoro-3-(1H-imidazol-1-yl)-5-methoxy-1-methyl-1H-indol-2-yl)-4H-1,2,4-triazol-3-yl)(3-hydroxypiperidin-1-yl)methanone]
138 | COc1cc2c(-n3ccnc3)c(-c3nnc(C(=O)N4CCN(C)CC4)[nH]3)n(C)c2c(F)c1Cl [Example 46, (5-(6-chloro-7-fluoro-3-(1H-imidazol-1-yl)-5-methoxy-1-methyl-1H-indol-2-yl)-4H-1,2,4-triazol-3-yl)(4-methylpiperazin-1-yl)methanone]
121 | COc1cc2c(-n3ccnc3)c(-c3nnc(C(F)(F)F)[nH]3)n(C)c2c(F)c1Cl [Example 47, 6-chloro-7-fluoro-3-(1H-imidazol-1-yl)-5-methoxy-1-methyl-2-(5-(trifluoromethyl)-4H-1,2,4-triazol-3-yl)-1H-indole]
107 | COCc1nnc(-c2c(-n3ccnc3)c3cc(OC)c(Cl)c(F)c3n2C)[nH]1 [Example 49, 6-chloro-7-fluoro-3-(1H-imidazol-1-yl)-5-methoxy-2-(5-(methoxymethyl)-4H-1,2,4-triazol-3-yl)-1-methyl-1H-indole]
57 | COc1cc2c(-n3ccnc3)c(-c3nnc(CSC)[nH]3)n(C)c2c(F)c1Cl [Example 50, 6-Chloro-7-fluoro-3-(1H-imidazol-1-yl)-5-methoxy-1-methyl-2-(5-((methylthio)methyl)-4H-1,2,4-triazol-3-yl)-1H-indole]
169 | COc1cc2c(-n3ccnc3)c(-c3nnc(CCO)[nH]3)n(C)c2c(F)c1Cl [Example 51, 2-(5-(6-chloro-7-fluoro-3-(1H-imidazol-1-yl)-5-methoxy-1-methyl-1H-indol-2-yl)-4H-1,2,4-triazol-3-yl)ethan-1-ol]
206 | COCCc1nnc(-c2c(-n3ccnc3)c3cc(OC)c(Cl)c(F)c3n2C)[nH]1 [Example 52, 6-chloro-7-fluoro-3-(1H-imidazol-1-yl)-5-methoxy-2-(5-(2-methoxyethyl)-4H-1,2,4-triazol-3-yl)-1-methyl-1H-indole]
